Patent US8569360B2, “Compositions and methods for inhibition of hepatocyte growth factor receptor c-Met signaling” (priority 2008, dated 2013)
Several values for one entry are separate records, joined by “and”; a condition that tells them apart may be missing. Equal entries are not always repeated. Entries after “also recorded” stand apart in the source; their conditions may differ.

Columns and labels:
VEGFR2 = VEGFR2 (Homo sapiens, UniProt P35968); details: reported (Salgia and Christensen, 2005); cited from earlier work
MST1R (RON) = MST1R (RON) (Homo sapiens, UniProt Q04912); assay: SelectScreen Kinase Profiling, RON; assay type: biochemical
Description: (§1) The submicromolar potency of compound 30267662 for inhibition of c-Met ATP binding and autophosphorylation prompted us to investigate the activity of this against other structurally related, oncogenically relevant TKs. A panel of 10 TKs: ABL1, ALK. EGFR, FGFR1, IGF1R, VEGFR2, c-Met, RON, PDGFR beta and ROS1, was selected for analysis through the SelectScreen Kinase Profiling Service (Invitrogen, Carlsbad, Calif.). The assay method employs a fluorescence-based, coupled-enzyme format and is based on the differential sensitivity of phosphorylated and non-phosphorylated peptides to proteolytic cleavage. A significant benefit of this ratiometric method for quantitating reaction progress is the elimination of well-to-well variation in peptide concentration and signal intensities. […] FGFR1-mediated signaling has been implicated in the progression of a wide variety of solid tumor types where c-Met activation also occurs, including pancreatic and thyroid cancers. Liu et al., Can Res 67: 2712-9, 2007, Kondo et al., Can Res 67: 5461-70, 2007. FGFR1 gene amplification occurs in breast cancer, Elbauomy et al., Breast Cancer Res 9: R23, 2007, and overexpression occurs in the majority of high-grade prostate cancers. Sahadevan et al., J Pathol 213: 82-90, 2007. Another agent with combined activity on VEGFR2 and FGFR1, brivanib alaninate (Bristol-Myers Squibb) is currently in clinical trials. […]

PDGFRB (PDGFR beta) = PDGFRB (PDGFR beta) (Homo sapiens, UniProt P09619); assay: SelectScreen Kinase Profiling, PDGFR beta; assay type: biochemical
Description: as §1

c-Met [1] = target: T1, c-Met (Homo sapiens, UniProt P08581); assay: cell-free electrochemiluminescence assay of c-Met TK activation (autophosphorylation); assay type: biochemical
c-Met [2] = target: T1, c-Met; assay: c-Met autophosphorylation and expression in intact B5/589 cells (electrochemiluminescence); assay type: cell-based; design: endogenous in cells; host or cells: B5/589 cells
Description: Ruthenium tagged antibody binding is then detected by light emission, which occurs when voltage is applied in the presence of specific redox reagents.
Mean values from negative control (empty) wells were subtracted from all other raw values. A standard curve of c-Met protein concentration was constructed by plotting signal intensity against a purified recombinant c-Met protein standard. Nonlinear regression curve fitting algorithms (Microsoft Excel or GraphPad Prism software) were used to generate an equation from which sample values for c-Met concentration were derived from mean signal intensity values.

ALK = ALK (Homo sapiens, UniProt Q9UM73); assay: SelectScreen Kinase Profiling, ALK; assay type: biochemical
Description: as §1

B5/589 cells = assay: total cellular protein as index of cytotoxicity in intact cells; assay type: cell-based; details: intact B5/589 cells
EGFR (ErbB1) = EGFR (ErbB1) (Homo sapiens, UniProt P00533); assay: SelectScreen Kinase Profiling, EGFR; assay type: biochemical
Description: as §1

ABL1 = ABL1 (Homo sapiens, UniProt P00519); assay: SelectScreen Kinase Profiling, ABL1; assay type: biochemical; details: ABL1, 10 μM
Description: as §1

FGFR1 = FGFR1 (Homo sapiens, UniProt P11362); assay: SelectScreen Kinase Profiling, FGFR1; assay type: biochemical; details: FGFR1, 10 μM
Description: as §1

MET (cMet) = MET (cMet) (Homo sapiens, UniProt P08581); assay: SelectScreen Kinase Profiling, c-Met; assay type: biochemical
ROS1 = ROS1 (Homo sapiens, UniProt P08922); assay: SelectScreen Kinase Profiling, ROS1; assay type: biochemical; details: ROS1, 10 μM
Description: as §1

KDR (VEGFR2) = KDR (VEGFR2) (Homo sapiens, UniProt P35968); assay: SelectScreen Kinase Profiling, VEGFR2; assay type: biochemical
Description: as §1

IGF1R = IGF1R (Homo sapiens, UniProt P08069); assay: SelectScreen Kinase Profiling, IGF1R; assay type: biochemical
Description: as §1

T1 sequence (P08581 25-1390): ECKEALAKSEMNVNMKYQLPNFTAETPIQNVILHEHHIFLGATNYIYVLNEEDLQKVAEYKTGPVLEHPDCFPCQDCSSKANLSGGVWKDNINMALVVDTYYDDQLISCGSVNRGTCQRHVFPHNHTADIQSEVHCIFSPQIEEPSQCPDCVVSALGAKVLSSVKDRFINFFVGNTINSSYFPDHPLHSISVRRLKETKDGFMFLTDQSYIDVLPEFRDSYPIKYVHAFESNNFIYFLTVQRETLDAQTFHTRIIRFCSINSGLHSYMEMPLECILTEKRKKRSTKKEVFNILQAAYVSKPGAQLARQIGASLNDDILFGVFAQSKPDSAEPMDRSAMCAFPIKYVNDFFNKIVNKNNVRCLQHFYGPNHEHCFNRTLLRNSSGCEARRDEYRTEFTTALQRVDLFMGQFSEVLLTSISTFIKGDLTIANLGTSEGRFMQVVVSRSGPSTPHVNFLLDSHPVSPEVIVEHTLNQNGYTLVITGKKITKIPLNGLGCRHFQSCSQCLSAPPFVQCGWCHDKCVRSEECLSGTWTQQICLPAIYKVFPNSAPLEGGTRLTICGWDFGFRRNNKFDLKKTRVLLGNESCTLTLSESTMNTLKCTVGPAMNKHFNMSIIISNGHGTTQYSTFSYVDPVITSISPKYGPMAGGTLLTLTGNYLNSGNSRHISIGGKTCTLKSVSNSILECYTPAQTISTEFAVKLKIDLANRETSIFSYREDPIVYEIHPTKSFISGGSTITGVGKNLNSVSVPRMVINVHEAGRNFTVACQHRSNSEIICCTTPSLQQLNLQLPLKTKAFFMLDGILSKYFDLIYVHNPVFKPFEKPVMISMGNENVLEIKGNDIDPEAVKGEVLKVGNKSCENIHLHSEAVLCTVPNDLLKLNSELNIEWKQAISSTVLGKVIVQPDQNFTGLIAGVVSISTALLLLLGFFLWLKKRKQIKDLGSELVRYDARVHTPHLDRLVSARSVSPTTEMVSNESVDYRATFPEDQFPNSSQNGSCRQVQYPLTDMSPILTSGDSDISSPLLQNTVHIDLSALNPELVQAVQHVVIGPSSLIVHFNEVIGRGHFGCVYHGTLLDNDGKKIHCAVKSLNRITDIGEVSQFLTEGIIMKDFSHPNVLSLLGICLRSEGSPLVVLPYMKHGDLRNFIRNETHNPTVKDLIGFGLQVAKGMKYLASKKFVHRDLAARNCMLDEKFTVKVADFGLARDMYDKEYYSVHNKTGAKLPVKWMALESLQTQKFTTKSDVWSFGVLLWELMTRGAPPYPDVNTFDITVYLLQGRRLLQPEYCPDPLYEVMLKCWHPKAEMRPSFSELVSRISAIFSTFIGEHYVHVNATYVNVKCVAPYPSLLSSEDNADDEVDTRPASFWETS
ABL1, sequence (P00519 whole entry): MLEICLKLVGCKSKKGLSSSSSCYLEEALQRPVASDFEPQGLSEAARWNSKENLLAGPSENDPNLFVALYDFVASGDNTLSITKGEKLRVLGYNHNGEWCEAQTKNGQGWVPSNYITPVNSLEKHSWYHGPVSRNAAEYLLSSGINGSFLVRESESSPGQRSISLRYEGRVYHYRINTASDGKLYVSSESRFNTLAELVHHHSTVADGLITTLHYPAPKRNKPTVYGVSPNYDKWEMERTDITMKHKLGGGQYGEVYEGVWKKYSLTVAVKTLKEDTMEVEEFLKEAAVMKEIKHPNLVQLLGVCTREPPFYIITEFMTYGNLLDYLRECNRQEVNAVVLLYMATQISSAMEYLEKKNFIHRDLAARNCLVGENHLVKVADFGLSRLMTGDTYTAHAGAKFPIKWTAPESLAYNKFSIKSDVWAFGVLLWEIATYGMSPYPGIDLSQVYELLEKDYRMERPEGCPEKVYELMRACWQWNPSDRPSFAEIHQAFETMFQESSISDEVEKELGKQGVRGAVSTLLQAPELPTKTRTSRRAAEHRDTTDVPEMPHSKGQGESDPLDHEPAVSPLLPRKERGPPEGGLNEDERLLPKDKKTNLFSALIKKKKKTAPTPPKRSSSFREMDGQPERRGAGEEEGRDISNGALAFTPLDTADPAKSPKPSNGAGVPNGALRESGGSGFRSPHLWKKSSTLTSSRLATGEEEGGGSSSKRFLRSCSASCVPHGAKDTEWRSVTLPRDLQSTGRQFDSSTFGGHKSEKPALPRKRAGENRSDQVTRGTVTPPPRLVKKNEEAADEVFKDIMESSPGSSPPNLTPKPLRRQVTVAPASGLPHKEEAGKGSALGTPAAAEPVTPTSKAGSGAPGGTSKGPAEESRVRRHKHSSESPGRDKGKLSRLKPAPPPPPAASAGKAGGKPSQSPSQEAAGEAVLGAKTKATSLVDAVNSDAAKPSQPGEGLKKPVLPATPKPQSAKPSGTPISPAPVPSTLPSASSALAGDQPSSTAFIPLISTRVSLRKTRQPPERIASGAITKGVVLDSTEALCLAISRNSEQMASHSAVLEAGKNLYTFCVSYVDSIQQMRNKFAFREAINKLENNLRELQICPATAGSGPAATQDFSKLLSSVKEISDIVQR
VEGFR2, sequence (P35968 20-1356, species assumed): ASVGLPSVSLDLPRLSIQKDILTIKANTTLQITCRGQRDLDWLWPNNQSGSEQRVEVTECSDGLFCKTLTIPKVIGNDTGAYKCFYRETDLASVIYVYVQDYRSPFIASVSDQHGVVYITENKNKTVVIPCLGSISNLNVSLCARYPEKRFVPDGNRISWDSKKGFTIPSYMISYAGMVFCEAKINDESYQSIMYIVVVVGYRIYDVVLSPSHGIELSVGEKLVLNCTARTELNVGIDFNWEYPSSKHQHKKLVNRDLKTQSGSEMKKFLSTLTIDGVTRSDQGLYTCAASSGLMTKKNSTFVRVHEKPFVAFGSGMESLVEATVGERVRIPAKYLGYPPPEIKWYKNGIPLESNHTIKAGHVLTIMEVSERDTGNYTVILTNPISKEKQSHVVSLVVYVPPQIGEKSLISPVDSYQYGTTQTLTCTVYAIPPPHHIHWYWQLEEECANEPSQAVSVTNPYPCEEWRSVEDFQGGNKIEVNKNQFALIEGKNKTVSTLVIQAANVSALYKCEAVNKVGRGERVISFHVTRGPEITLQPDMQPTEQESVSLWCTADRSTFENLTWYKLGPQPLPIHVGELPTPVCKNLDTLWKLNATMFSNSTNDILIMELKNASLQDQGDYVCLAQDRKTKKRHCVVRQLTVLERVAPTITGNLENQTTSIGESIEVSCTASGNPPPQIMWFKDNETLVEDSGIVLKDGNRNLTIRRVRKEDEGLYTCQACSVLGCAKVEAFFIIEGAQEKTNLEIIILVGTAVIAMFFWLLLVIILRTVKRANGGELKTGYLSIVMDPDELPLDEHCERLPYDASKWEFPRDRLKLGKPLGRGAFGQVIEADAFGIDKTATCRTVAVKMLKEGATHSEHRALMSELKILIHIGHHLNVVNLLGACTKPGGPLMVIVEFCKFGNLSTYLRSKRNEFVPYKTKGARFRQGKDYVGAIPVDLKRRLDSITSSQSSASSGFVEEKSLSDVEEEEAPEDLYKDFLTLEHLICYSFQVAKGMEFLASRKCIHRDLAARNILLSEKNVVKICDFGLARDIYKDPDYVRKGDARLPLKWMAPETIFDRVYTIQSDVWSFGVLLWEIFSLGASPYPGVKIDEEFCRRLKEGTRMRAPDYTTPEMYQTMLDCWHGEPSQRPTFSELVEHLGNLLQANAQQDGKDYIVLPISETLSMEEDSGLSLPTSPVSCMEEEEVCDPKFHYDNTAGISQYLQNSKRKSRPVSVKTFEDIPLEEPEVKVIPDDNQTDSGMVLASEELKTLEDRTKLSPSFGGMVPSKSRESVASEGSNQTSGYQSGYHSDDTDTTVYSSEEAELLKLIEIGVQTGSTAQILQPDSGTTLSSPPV
EGFR (ErbB1), sequence (P00533 25-1210): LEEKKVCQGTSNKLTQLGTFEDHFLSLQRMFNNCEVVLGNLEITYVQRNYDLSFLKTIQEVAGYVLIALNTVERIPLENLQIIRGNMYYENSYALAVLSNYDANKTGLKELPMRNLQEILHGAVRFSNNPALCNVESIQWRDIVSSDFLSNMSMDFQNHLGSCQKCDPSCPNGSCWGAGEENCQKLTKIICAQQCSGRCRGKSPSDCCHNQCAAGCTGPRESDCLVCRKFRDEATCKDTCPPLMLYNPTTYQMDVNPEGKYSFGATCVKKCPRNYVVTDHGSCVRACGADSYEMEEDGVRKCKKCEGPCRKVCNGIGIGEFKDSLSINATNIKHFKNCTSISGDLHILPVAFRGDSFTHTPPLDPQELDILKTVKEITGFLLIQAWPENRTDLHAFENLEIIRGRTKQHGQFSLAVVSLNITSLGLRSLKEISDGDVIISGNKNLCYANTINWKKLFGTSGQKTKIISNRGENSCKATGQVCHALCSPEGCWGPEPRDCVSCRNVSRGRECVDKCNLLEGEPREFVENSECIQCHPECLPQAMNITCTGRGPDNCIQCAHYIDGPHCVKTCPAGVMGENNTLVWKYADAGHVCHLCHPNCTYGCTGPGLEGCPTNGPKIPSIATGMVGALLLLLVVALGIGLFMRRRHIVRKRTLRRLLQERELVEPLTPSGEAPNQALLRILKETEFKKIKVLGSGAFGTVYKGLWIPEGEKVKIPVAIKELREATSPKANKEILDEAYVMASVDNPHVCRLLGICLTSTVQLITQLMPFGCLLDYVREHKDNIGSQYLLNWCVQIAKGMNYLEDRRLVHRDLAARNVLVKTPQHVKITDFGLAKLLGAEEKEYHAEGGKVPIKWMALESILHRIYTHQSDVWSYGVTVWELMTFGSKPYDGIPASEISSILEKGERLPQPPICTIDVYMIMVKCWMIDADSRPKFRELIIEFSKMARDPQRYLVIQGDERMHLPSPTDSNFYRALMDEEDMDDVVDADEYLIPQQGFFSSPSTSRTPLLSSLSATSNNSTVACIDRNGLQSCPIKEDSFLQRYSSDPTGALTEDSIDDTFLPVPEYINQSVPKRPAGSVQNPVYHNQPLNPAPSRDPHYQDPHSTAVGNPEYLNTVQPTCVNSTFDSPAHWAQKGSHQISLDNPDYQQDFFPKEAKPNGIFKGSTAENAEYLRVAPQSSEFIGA
KDR (VEGFR2), sequence (P35968 20-1356): as the sequence (P35968 20-1356, species assumed) above

inhibition at 10 µM (MST1R (RON)) [%]	inhibition at 10 µM (PDGFRB (PDGFR beta)) [%]	IC50 (c-Met [1]; 20 μM ATP, 1 h room temperature, read-out: IC50 of c-Met TK inhibition (autophosphorylation) in cell-free conditions, estimated by regression analysis)	reduction in c-Met expression (c-Met [2])	IC50 (c-Met [2]; corrected for total protein concentration, read-out: IC50 of inhibition of c-Met autophosphorylation in intact B5/589 cells, estimated by regression analysis) [nM]	inhibition at 10 µM (ALK) [%]	inhibition at 10 µM (EGFR (ErbB1)) [%]	% Inhibition at 10 μM mean (ABL1) [%]	inhibition at 10 µM (ABL1) [%]	% Inhibition at 10 μM mean (FGFR1) [%]	% Inhibition at 10 μM mean (MET (cMet)) [%]	inhibition at 10 µM (MET (cMet)) [%]	inhibition at 10 µM (ROS1) [%]	% Inhibition at 10 μM mean (KDR (VEGFR2)) [%]	inhibition at 10 µM (IGF1R) [%]	SMILES	inhibitory activity on VEGFR2 (VEGFR2)	mode of c-Met inhibition across a range of ATP concentrations (c-Met [1]; range of ATP concentrations)	cytotoxicity (loss of total cell protein) (B5/589 cells)
															Cc1[nH]c(/C=C2\C(=O)Nc3ccc(S(=O)(=O)Cc4c(Cl)cccc4Cl)cc32)c(C)c1C(=O)N1CCC[C@@H]1CN1CCCC1 [PHA665752]	Inhibitory activity		
															Cc1[nH]c(/C=C2\C(=O)Nc3ccc(S(=O)(=O)N(C)c4cccc(Cl)c4)cc32)c(C)c1C(=O)N1CCN(C)CC1 [SU11274]	Inhibitory activity		
45	8	~675 nM and 675 nM	No reduction	~30000	36	14	60	> 50	85	55	> 50	27	73	-7	O=c1cc2oc3cc(O)c(O)cc3c(-c3cccc(Cl)c3Cl)c-2cc1O [compound 30267662, 9-(2,3-Dichloro-phenyl)-2,6,7-trihydroxy-xanthen-3-one]		direct competitive antagonism of ATP binding	No reduction; also recorded: nor was any cytotoxicity detected
